Reference: patent US9011839B2, “Anti-inflammatory and anti-vaginitis food composition and pharmaceutical composition containing Lactobacillus” (Glac Biotech Co., Ltd., priority 2010, dated 2015)

How the values were obtained:
human dendritic cells [1] = experiment: Stimulation of IL-10 secretion using an in vitro assay platform of dendritic cells; type: cell-based; details: human dendritic cells co-cultured 48 hours with heated LAB (1:10); supernatant ELISA; Mean±SD
Procedure: B. Stimulation of IL-10 Secretion Using an In Vitro Assay Platform of Dendritic Cells.
In order to measure the increased amount of IL-10 secretion, human dendritic cells and the above-mentioned lactic acid bacteria are co-cultured and the secretion of IL-10 is then measured so as to determine the promoting effect on inhibiting inflammatory cells from secreting cytokine. The assay procedures are listed as followings: • 1. 200 mL human blood are obtained from healthy donors; • 2. 1:1 blood isolates (Ficoll-paque) and blood are centrifuged at 400 g in 18-20° C. for 30-40 min. • 3. Cells obtained from human PBMC (Peripheral Blood Mononuclear Cell) layer are washed with buffer solution 2-3 times and suspended with appropriate culture medium such as RPMI-1640. • 4. CD14^+ monocytes are purified from PBMC cells by using CD14^+ microbeads (MiniMACS system). • 5. Cells are differentiated into dendritic cells after incubating for 6-7 days by stimulating with IL-4 and GM-CSF and differentiated dendritic cells are then collected. • 6. The lactic acid bacteria strain is activated 3 days before co-culture and is then heated for thermal death at 100° C. for 30 min. • 7. The dendritic cells and the heated lactic acid bacteria strain (1:10) are co-cultured for 48 hours. • 8. […]
The statistic results (Mean±SD) of data are analyzed in Table 4. […]

human dendritic cells [2] = experiment: Inhibition of TNF-α secretion using an in vitro assay platform of dendritic cells; type: cell-based; details: human dendritic cells co-cultured 48 hours with heated LAB (1:10); supernatant ELISA; Mean±SD
Procedure: A. Inhibition of TNF-α Secretion Using an In Vitro Assay Platform of Dendritic Cells.
The inhibition assay for Th17 immune response is implemented by measuring TNF-α secretion after co-culture with the above-mentioned lactic acid bacteria. The assay procedures are listed as followings: • 1. 200 mL human blood are obtained from healthy donors. • 2. 1:1 blood isolates (Ficoll-paque) and blood are centrifuged at 400 g in 18-20° C. for 30-40 min. • 3. Cells obtained from human PBMC (Peripheral Blood Mononuclear Cell) layer are washed with buffer solution 2-3 times and suspended with appropriate culture medium such as RPMI-1640. • 4. CD14^+ monocytes are purified from PBMC cells by using CD14^+ microbeads (MiniMACS system). • 5. Cells are differentiated into dendritic cells after incubating for 6-7 days by stimulating with IL-4 and GM-CSF and differentiated dendritic cells are then collected. • 6. The lactic acid bacteria strain is activated 3 days before co-culture and is then heated for thermal death at 100° C. for 30 min. • 7. The dendritic cells and the heated lactic acid bacteria strain (1:10) are co-cultured for 48 hours. • 8. The supernatant of the cell culture medium is collected and used for measuring TNF-α amount by using ELISA (enzyme-linked-immunosorbent serologic assay).
The statistic results (Mean±SD) of data are analyzed in Table 3. […]

vaginitis patients = details: Barrons et al (2008); tampons, 4-8 weeks; cited from earlier work

Phytohemagglutinin [PHA]
IL-10 Secretion (human dendritic cells [1]): 9145 ± 118 pg/mL

Lipopolysaccharide [LPS]
TNF-α Secretion (human dendritic cells [2]): 1521 ± 37 pg/mL

CC(=O)O [acetic acid]
vaginitis patients revealing improvement (vaginitis patients): 38%
